# Patent US12414953B2, “Selective inhibitors of protein arginine methyltransferase 5 (PRMT5)” (Prelude Therapeutics, Incorporated, priority 2019, dated 2025)
# How the values were obtained:
# [1] = Solubility of HCl salt in solvents, saturated solution analyzed by HPLC; assay type: physicochemical; details: thermodynamic from solid; for solubility: 21 °C, 21 ± 1° C.; for solubility at 24 hr: 50 °C, 50 ± 1° C.
# Description: (§1) 3 mL of the tested solvent was added to a 4 mL of vial. Formula IA was added until a cloudy solution was obtained at 21±1° C. About 30 mg additional Formula IA was added to the cloudy solution. The mixture was agitated at 21±1° C. for a weekend, during which the temperature was controlled by IKA® ETS-D5 temperature controller and IKA® RCT basic safety control. The mixture was filtered using a syringe filter (PTFE, […], 13 mm, Agela Technologies Inc.). The satuatred solution was transferred into an HPLC vial, diluted with methanol, and analyzed by HPLC.
# as §1, with “2 mL” for “3 mL”, “at 50±1°” for “at 21±1°”, “for 24 hr,” for “for a weekend,”, “The saturated” for “The satuatred”
# U-87 MG cells = test: Cell proliferation assay (CCK-8, day 10); assay type: cell-based; details: Homo sapiens, 240 h, U-87 MG cell line, read-out: Prolif. IC50
# Description: One day before experiment, Granta-519 cells were passaged to a density of 0.5×10^6 cells/ml. U-87 MG cells were trypsinized and 2,000 cells were seeded into 96-well plates and allowed to grow overnight. On the day of experiment (day 0), Granta-519 Cells were spun down at 1,500 rpm for 4 min, resuspended in fresh medium to 0.5×10^6 cells/ml and 190 μL of cells were added to 96 well plates. For U-87 MG cells, old medium was removed and replaced with 190 uL fresh medium. Compound working stocks were first diluted at 1:50 with fresh medium in 96 well plate and 10 μL of diluted drugs were added to 96 well plates containing cells and incubated for 3 days. DMSO was used a vehicle control.
# One day 3, 50 μL of Granta-519 cells were transferred to a new 96-well plate and 140 uL fresh medium was added. […]
# On day 10, 100 μL Granta-519 cells were transferred to a new 96 well plate and 10 μL of Cell Counting Kit-8 (CCK-8, Jojindo, CK04-13) solution was added. […] Plates were incubated in CO2 incubator for 2 hours (Granta-519 cells) or 30 min (U-87 MG cells) and OD450 values were measured with a microplate reader (iMark microplate reader, Bio-Rad). Percentage of viable cells, relative to DMSO vehicle control, were calculated and plotted in Graphpad Prism ([Inhibitor] vs. normalized response−Variable slope) to determine proliferation IC50 values on day 10. […]
# [2] = organic solvent or mixture, EtOAc
# [3] = organic solvent or mixture, EtOH
# [4] = organic solvent or mixture, IPA
# [5] = organic solvent or mixture, IPAc
# [6] = organic solvent or mixture, MeCN
# [7] = organic solvent or mixture, Methanol
"solubility [1, 2]","solubility [1, 3]","solubility [1, 4]","solubility [1, 5]","solubility [1, 6]","solubility [1, 7]",solubility ([1]; Water),"solubility at 24 hr [1, 2]","solubility at 24 hr [1, 3]","solubility at 24 hr [1, 4]","solubility at 24 hr [1, 5]","solubility at 24 hr [1, 6]","solubility at 24 hr [1, 7]",solubility at 24 hr ([1]; Water),IC50 (U-87 MG cells),Structure (SMILES)
120 µg/mL,7640 µg/mL,960 µg/mL,160 µg/mL,690 µg/mL,> 50000 µg/mL,14700 µg/mL,160 µg/mL,10800 µg/mL,1990 µg/mL,240 µg/mL,1050 µg/mL,> 50000 µg/mL,43800 µg/mL,,"Cc1ncnc2c1ccn2[C@@H]1O[C@H]([C@@H]2OCCc3cc(Cl)ccc32)[C@@H](O)[C@H]1O [Formula IA, (2S,3S,4R,5R)-2-((R)-6-chloroisochroman-1-yl)-5-(4-methyl-7H-pyrrolo[2,3-d]pyrimidin-7-yl)tetrahydrofuran-3,4-diol]"
,,,,,,,,,,,,,,54 nM,"Cc1ncnc2c1ccn2[C@@H]1O[C@H]([C@@H]2OCCc3cc(Cl)ccc32)[C@@H](O)[C@H]1O [Formula I, (2S,3S,4R,5R)-2-((R)-6-chloroisochroman-1-yl)-5-(4-methyl-7H-pyrrolo[2,3-d]pyrimidin-7-yl)tetrahydrofuran-3,4-diol]"
